Experiment [1] has as its target T1, Protein farnesyltransferase (Rattus norvegicus) (UniProt Q04631+Q02293). Briefly: Percentage in vitro inhibition of rat protein farnesyltransferase at 50 uM. It is filed as protein-complex assay.
Experiment [2] addresses T2, geranylgeranyltransferase type-I (Rattus norvegicus) (UniProt P53610+Q04631). Briefly: Percentage in vitro inhibition of rat protein geranylgeranyltransferase type-I at 50 uM. It is filed as protein-complex assay.
Experiment [3] relates to Protein farnesyltransferase (Trypanosoma brucei). Briefly: Percentage in vitro inhibition of recombinant Trypanosoma brucei protein farnesyltransferase at 2 uM.
The subject of another experiment is Trypanosoma brucei. Put plainly: In vitro dose required to inhibit growth of Trypanosoma brucei. It is filed as functional. The note with it: read-out: ED50 (the source's name).
Experiment [4] addresses T2, geranylgeranyltransferase type-I (Rattus norvegicus). Put plainly: Percentage in vitro inhibition of rat protein geranylgeranyltransferase type-I at 5 uM. It is filed as protein-complex assay.
Experiment [5] concerns the target T1, Protein farnesyltransferase (Rattus norvegicus). Put plainly: Percentage in vitro inhibition of rat protein farnesyltransferase at 5 uM. It is filed as protein-complex assay.
Experiment [6] relates to Protein farnesyltransferase (Trypanosoma brucei). Put plainly: Percentage in vitro inhibition of recombinant Trypanosoma brucei protein farnesyltransferase at 5 uM.
Experiment [7] addresses T2, geranylgeranyltransferase type-I (Rattus norvegicus). Put plainly: Percentage in vitro inhibition of rat protein geranylgeranyltransferase type-I at 100 uM. It is filed as protein-complex assay.
Experiment [8] addresses T1, Protein farnesyltransferase (Rattus norvegicus). Briefly: Percentage in vitro inhibition of rat protein farnesyltransferase at 100 uM. It is filed as protein-complex assay.
Experiment [9] relates to Protein farnesyltransferase (Trypanosoma brucei). Briefly: Percentage in vitro inhibition of recombinant Trypanosoma brucei protein farnesyltransferase at 100 uM.
Experiment [10] deals with T2, geranylgeranyltransferase type-I (Rattus norvegicus). Briefly: Percentage in vitro inhibition of rat protein geranylgeranyltransferase type-I at 2 uM. It is filed as protein-complex assay.
Experiment [11] deals with T1, Protein farnesyltransferase (Rattus norvegicus). Put plainly: Percentage in vitro inhibition of rat protein farnesyltransferase at 2 uM. It is filed as protein-complex assay.

Usually inhibition stands for the relative decrease from the control value, in per cent. As for `CCOC1C(c2c(C)cc(C)cc2C)=NOC1C1=C(c2ccc(OC)cc2)C(N(CC)CC)=NS1(=O)=O` (stereo unspecified), the inhibition in [1] was 9%; in experiment [2] it was 12%; in experiment [3] it was 10%.

Consider `CCN(CC)C1=NS(=O)(=O)C(C2CC(c3c(C)cc(C)cc3C)=NO2)=C1c1ccc(OC)cc1` (stereo unspecified), for which, in the experiment on Trypanosoma brucei, the EC50 worked out at 10 µM. Moreover, the inhibition in [1] was determined as 21%; in [4] it was 15%; in experiment [2] it was 25%; in [5], 0%; in [3], 50%; in experiment [6] it was 66%.

For the molecule `CCN(CC)C1=NS(=O)(=O)C(C2CC(c3c(C)c(C)c(C)c(C)c3C)=NO2)=C1c1ccc(OC)cc1` (stereo unspecified), the figures for the inhibition in experiment [1] and in experiment [3] were 7% and 13%, respectively.

For the molecule `CCN(CC)C1=NS(=O)(=O)C(C2CC(c3ccc(Cl)cc3)=NO2)=C1c1ccc(OC)cc1` (stereo unspecified), the inhibition in experiment [1] worked out at 8%; in experiment [2], 20%; in experiment [3], 0%.

In the case of `CCN(CC)C1=NS(=O)(=O)C(c2ccccc2)=C1c1ccc(OC)cc1`, the values for the inhibition in experiment [7], in experiment [8] and in experiment [9] were 26%, 0% and 13%, respectively.

For `CCN(CC)C1=NS(=O)(=O)C=C1c1ccc(OC)cc1`, the values for the inhibition in experiment [4], in experiment [5] and in experiment [6] were 12%, 0% and 0%, respectively.

`CCN(CC)C1=NS(=O)(=O)C(C2CC(c3c(C)cccc3C)=NO2)=C1c1ccc(OC)cc1` (stereo unspecified): the results for the inhibition in experiment [1], in experiment [2] and in [3] were 22%, 17% and 8%, respectively.

Consider `CCN(CC)C1=NS(=O)(=O)C(C2CC(c3ccc(OC)cc3)=NO2)=C1c1ccc(OC)cc1` (stereo unspecified), for which the inhibition is 13% in experiment [1], 17% in [2] and 8% in [3].

Consider `CCN(CC)C1=NS(=O)(=O)C(SC)=C1c1ccc(OC)cc1`, for which the figures for the inhibition in experiment [7], in experiment [8] and in experiment [9] were 36%, 5% and 7%, respectively.

On to `CCN(CC)C1=NS(=O)(=O)C(c2cc(-c3c(C)cc(C)cc3C)no2)=C1c1ccc(OC)cc1`, for which the inhibition came out at 8% in experiment [1], 11% in [2] and 0% in [3].

In the case of `CCN(CC)C1=NS(=O)(=O)C(Sc2ccccc2)=C1c1ccc(OC)cc1`, the inhibition in [7] stood at 17%; in experiment [8], 5%; in [9], 62%.

As for `CCN(CC)C1=NS(=O)(=O)C(SC/C=C(\C)CC/C=C(/C)CCC=C(C)C)=C1c1ccc(OC)cc1`, the inhibition turned out to be 28% in experiment [7], 0% in experiment [8] and 25% in experiment [9].

Consider `CCN(CC)C1=NS(=O)(=O)C(C2CC(c3c(Cl)cccc3Cl)=NO2)=C1c1ccc(OC)cc1` (stereo unspecified), for which the inhibition stood at 14% in [1], 45% in [2] and 32% in experiment [3].

For the molecule `CCN(CC)C1=NS(=O)(=O)C(c2ccccn2)=C1c1ccc(OC)cc1`, the inhibition in experiment [7] stood at 7%; in [8], 3%; in experiment [9] it was 12%.

For `CCN(CC)C1=NS(=O)(=O)C(SC2CCCCC2)=C1c1ccc(OC)cc1`, the inhibition turned out to be 20% in experiment [7], 6% in [8] and 52% in experiment [9].

For `CCN(CC)C1=NS(=O)(=O)C(c2cn(S(=O)(=O)c3ccccc3)c3ccccc23)=C1c1ccc(OC)cc1`, the inhibition in experiment [7] was determined as 25%; in experiment [8] it was 5%; in experiment [9] it was 29%.

On to `CCN(CC)C1=NS(=O)(=O)C(C2CC(c3ccccc3C)=NO2)=C1c1ccc(OC)cc1` (stereo unspecified), for which the figures for the inhibition in [1], in [2] and in experiment [3] were 22%, 0% and 2%, respectively.

Regarding `CCN(CC)C1=NS(=O)(=O)C(C2CC(c3c(C)c(Cl)c(C)c(Cl)c3C)=NO2)=C1c1ccc(OC)cc1` (stereo unspecified), the figures for the inhibition in experiment [1], in experiment [2] and in [3] were 2%, 7% and 28%, respectively.

With `CCN(CC)C1=NS(=O)(=O)C(C)=C1c1ccc(OC)cc1`, the inhibition worked out at 56% in experiment [7], 27% in [8] and 43% in [9].

As to `CCN(CC)C1=NS(=O)(=O)C(C2CC(c3ccc([N+](=O)[O-])cc3)=NO2)=C1c1ccc(OC)cc1` (stereo unspecified), the inhibition in [1] was determined as 18%; in [2], 8%; in experiment [3] it was 2%.

Take `CCN(CC)C1=NS(=O)(=O)C(C#Cc2ccccc2)=C1c1ccc(OC)cc1`: the inhibition is 7% in experiment [10], 2% in experiment [11] and 0% in experiment [3].

The values are drawn from ChEMBL document CHEMBL1134872, “Isothiazole dioxides: synthesis and inhibition of Trypanosoma brucei protein farnesyltransferase” (2002).
